Assay results published in ChEMBL document CHEMBL2346660, “Synthesis and biological evaluation of trans 6-methoxy-1,1-dimethyl-2-phenyl-3-aryl-2,3-dihydro-1H-inden-4-yloxyalkylamine derivatives against drug susceptible, non-replicating M. tuberculosis H37Rv and clinical multidrug resistant strains” (Bioorg Med Chem Lett, 2013).
Converted amounts (≈) assume the structure as drawn. The source made the active and inactive calls. The rule behind the calls is not given here.

Columns and labels:
[1] = Cytotoxicity against african green monkey Vero cells after 72 hrs by resazurin assay; format: cell-based; conditions: chlorocebus sabaeus
[2] = test system: Mycobacterium tuberculosis; experiment: Antimicrobial activity against Mycobacterium tuberculosis H37Rv by BACTEC radiometric method; format: functional
[3] = Lipophilicity, log P of the compound; format: physicochemical; conditions: octanol/water
[4] = Selectivity index, ratio of CC50 for african green monkey Vero cells tp MIC for Mycobacterium tuberculosis H37Rv; format: functional
[5] = test system: Mycobacterium tuberculosis; experiment: Antimicrobial activity against Mycobacterium tuberculosis H37Rv infected in BALB/c mouse assessed as log10 reduction of bacterial growth in lungs at 100 mg/kg, po administered 6 days a week for 30 days starting from 2 days post infection relative to untreated control; format: functional
[6] = test system: Mycobacterium tuberculosis; experiment: Antimicrobial activity against compound-sensitive Mycobacterium tuberculosis 2280 by agar dilution method and BACTEC radiometric method; format: functional
[7] = test system: Mycobacterium tuberculosis; experiment: Antimicrobial activity against Mycobacterium tuberculosis H37Rv infected in mouse J774A.1 cells assessed as growth inhibition at MIC; format: functional
[8] = test system: Mycobacterium tuberculosis; format: functional, organism-based; conditions: H37Rv, 6.25 ug/ml
[9] = test system: Mycobacterium tuberculosis; experiment: Antimicrobial activity against Mycobacterium tuberculosis H37Rv infected in BALB/c mouse assessed as log10 reduction of bacterial growth in lungs at 25 mg/kg, po administered 6 days a week for 30 days starting from 2 days post infection relative to untreated control; format: functional

Compound: COc1cc(OCCN2CCCCCC2)c2c(c1)C(C)(C)[C@H](c1ccccc1)[C@H]2c1ccccc1 (relative stereo)
- CC50 at 72 h [1]: 8.11 µg/mL (≈ 17.3 µM)
- MIC [2]: 3.12 µg/mL (≈ 6.65 µM)
- logP [3]: 7.66
- Selectivity Index [4]: 2.6

Compound: COc1cc(OCCCN(C)C)c2c(c1)C(C)(C)[C@H](c1ccccc1)[C@H]2c1ccccc1 (relative stereo)
- CC50 at 72 h [1]: 4.59 µg/mL (≈ 10.7 µM)
- MIC [2]: 3.12 µg/mL (≈ 7.27 µM)
- logP [3]: 6.62
- Selectivity Index [4]: 1.4

Compound: COc1cc(OCCN2CCOCC2)c2c(c1)C(C)(C)[C@H](c1ccccc1)[C@H]2c1ccccc1 (relative stereo)
- CC50 at 72 h [1]: 17.5 µg/mL (≈ 38.2 µM)
- MIC [2]: 3.12 µg/mL (≈ 6.83 µM)
- logP [3]: 6.11
- Selectivity Index [4]: 5.6

Compound: CCN(CC)CCOc1cc(OC)cc2c1[C@H](c1ccccc1)[C@@H](c1ccccc1)C2(C)C (relative stereo)
- CC50 at 72 h [1]: 3.74 µg/mL (≈ 8.43 µM)
- MIC [2]: 3.12 µg/mL (≈ 7.04 µM)
- logP [3]: 7.19
- Selectivity Index [4]: 1.19

Compound: COc1cc(OCCN(C)C)c2c(c1)C(C)(C)[C@H](c1ccccc1)[C@H]2c1ccccc1 (relative stereo)
- CC50 at 72 h [1]: 2.96 µg/mL (≈ 7.12 µM)
- MIC [2]: 6.25 µg/mL (≈ 15 µM)
- logP [3]: 7.24
- Selectivity Index [4]: 0.47

Compound: COc1cc(OCCN2CCCCC2)c2c(c1)C(C)(C)[C@H](c1ccccc1)[C@H]2c1ccccc1 (relative stereo)
- CC50 at 72 h [1]: 2.41 µg/mL (≈ 5.29 µM)
- MIC [2]: 1.56 µg/mL (≈ 3.42 µM)
- logP [3]: 6.57
- Selectivity Index [4]: 1.54

Compound: COc1cc(OCCN2CCCCC2)c2c(c1)C(C)(C)[C@H](c1ccccc1)[C@H]2c1c(OC)ccc2ccccc12 (relative stereo)
- CC50 at 72 h [1]: 5.52 µg/mL (≈ 10.3 µM)
- MIC [2]: 1.56 µg/mL (≈ 2.91 µM)
- logP [3]: 8.11
- Selectivity Index [4]: 3.53

Compound: COc1cc(OCCN2CCCC2)c2c(c1)C(C)(C)[C@H](c1ccccc1)[C@H]2c1ccccc1 (relative stereo)
- CC50 at 72 h [1]: 7.49 µg/mL (≈ 17 µM)
- MIC [2]: 3.12 µg/mL (≈ 7.08 µM)
- logP [3]: 6.83
- Selectivity Index [4]: 2.39

Compound: COc1cc(OCCN(C(C)C)C(C)C)c2c(c1)C(C)(C)[C@H](c1ccccc1)[C@H]2c1ccccc1 (relative stereo)
- log10cfu [5]: 1.35
- MIC [6]: 3.12 µg/mL (≈ 6.63 µM)
- growth inhibition (GI) [7]: >90%
- CC50 at 72 h [1]: 49.2 µg/mL (≈ 104 µM)
- MIC [2]: 3.12 µg/mL (≈ 6.63 µM)
- logP [3]: 7.82
- Selectivity Index [4]: 15.73
- Activity [8]: Active

Compound: COc1cc(OCCN2CCCCCC2)c2c(c1)C(C)(C)[C@H](c1ccccc1)[C@H]2c1c(OC)ccc2ccccc12 (relative stereo)
- MIC [6]: 1.56 µg/mL (≈ 2.84 µM)
- CC50 at 72 h [1]: 24 µg/mL (≈ 43.6 µM)
- MIC [2]: 1.56 µg/mL (≈ 2.84 µM)
- logP [3]: 8.53
- Selectivity Index [4]: 15.37

Compound: CC[C@@H](CO)NCCN[C@@H](CC)CO [ETHAMBUTOL]
- CC50 at 72 h [1]: 38.5 µg/mL (≈ 188 µM)
- MIC [2]: 0.5 µg/mL (≈ 2.45 µM)
- logP [3]: 0.14
- Selectivity Index [4]: 77.02

Compound: NNC(=O)c1ccncc1 [ISONIAZID]
- log10cfu [9]: 2.8

Compound: CO[C@H]1/C=C/O[C@@]2(C)Oc3c(C)c(O)c4c(O)c(cc(O)c4c3C2=O)NC(=O)/C(C)=C\C=C\[C@H](C)[C@H](O)[C@@H](C)[C@@H](O)[C@@H](C)[C@H](OC(C)=O)[C@@H]1C [RIFAMYCIN]
- CC50 at 72 h [1]: 62.5 µg/mL (≈ 89.5 µM)
- MIC [2]: 0.39 µg/mL (≈ 0.559 µM)
- logP [3]: 3.71
- Selectivity Index [4]: 160.1
